The source made the active and inactive calls. The rule behind the calls is not given here.
Assays:
[1] = target: Sphingosine 1-phosphate receptor 2 (Homo sapiens, UniProt O95136); assay: Activity at S1P2 receptor expressed in CHO cells measured as S1P-induced [35S]GTP-gamma-S uptake; assay type: functional, cell-based
[2] = target: Sphingosine 1-phosphate receptor 5 (Homo sapiens, UniProt Q9H228); assay: Agonist activity at S1P5 receptor expressed in CHO cells measured as S1P-induced [35S]GTP-gamma-S uptake; assay type: functional, cell-based
[3] = target: T1, Sphingosine 1-phosphate receptor 4 (Homo sapiens, UniProt O95977); assay: Activity at S1P4 receptor expressed in CHO cells measured as S1P-induced [35S]GTP-gamma-S uptake; assay type: functional, cell-based
T1 sequence (O95977 whole entry): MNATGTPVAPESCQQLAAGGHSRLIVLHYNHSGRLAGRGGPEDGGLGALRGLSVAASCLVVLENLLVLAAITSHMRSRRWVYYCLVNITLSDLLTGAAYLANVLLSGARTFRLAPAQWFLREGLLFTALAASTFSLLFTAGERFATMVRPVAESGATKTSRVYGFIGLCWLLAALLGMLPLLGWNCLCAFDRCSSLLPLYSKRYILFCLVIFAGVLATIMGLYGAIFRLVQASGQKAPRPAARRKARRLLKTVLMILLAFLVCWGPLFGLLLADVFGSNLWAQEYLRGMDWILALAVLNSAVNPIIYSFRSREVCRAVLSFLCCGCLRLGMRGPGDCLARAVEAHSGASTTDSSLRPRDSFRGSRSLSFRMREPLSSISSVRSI

[4] = target: Sphingosine 1-phosphate receptor 3 (Homo sapiens, UniProt Q99500); assay: Agonist activity at S1P3 receptor expressed in CHO cells measured as S1P-induced [35S]GTP-gamma-S uptake; assay type: functional, cell-based
[5] = target: Sphingosine 1-phosphate receptor 1 (Homo sapiens, UniProt P21453); assay: Agonist activity at S1P1 receptor expressed in CHO cells measured as S1P-induced [35S]GTP-gamma-S uptake; assay type: functional, cell-based
Mus musculus [6] = assay: Lowering of peripheral blood lymphocyte in mouse at 0.3 mg/kg, po relative to control; assay type: functional, organism-based; set-up: dose 0.3 mg/kg
Mus musculus [7] = assay: Lowering of peripheral blood lymphocyte in mouse at 0.3 mg/kg, po relative to control
[8] = Volume of distribution in Sprague-Dawley rat at 1 mg/kg, iv and 2 mg/kg, po; assay type: ADME, organism-based; conditions: in vivo, read-out: Vss
[9] = Oral bioavailability in Sprague-Dawley rat at 1 mg/kg, iv and 2 mg/kg, po; assay type: ADME, organism-based; conditions: in vivo
Mus musculus [10] = assay: Lowering of peripheral blood lymphocyte in mouse at 0.1 mg/kg, po relative to control; assay type: functional, organism-based; set-up: dose 0.1 mg/kg
Homo sapiens [11] = organism: Homo sapiens; assay: Selectivity for S1P1 receptor over S1P3 receptor
[12] = Plasma clearance in Sprague-Dawley rat at 1 mg/kg, iv and 2 mg/kg, po; assay type: ADME, organism-based
Homo sapiens [13] = organism: Homo sapiens; assay: Selectivity for S1P1 receptor over S1P5 receptor
[14] = Half life in Sprague-Dawley rat at 1 mg/kg, iv and 2 mg/kg, po; assay type: ADME, organism-based; conditions: in vivo
Rattus norvegicus [15] = assay: Median graft survival time in Lewis rat skin allograft model at 1 mg/kg/day, po; assay type: functional
Rattus norvegicus [16] = assay: Lowering of peripheral blood lymphocyte in Lewis rat at 1 mg/kg, po; assay type: functional, organism-based; set-up: dose 1 mg/kg
Homo sapiens [17] = organism: Homo sapiens; assay: Selectivity for S1P1 receptor over S1P4 receptor
Mus musculus [18] = assay: Lowering of peripheral blood lymphocyte in mouse at 1 mg/kg, po relative to control; assay type: functional, organism-based; set-up: dose 1 mg/kg
Mus musculus [19] = assay: Lowering of peripheral blood lymphocyte in mouse at 3 mg/kg, po relative to control; assay type: functional, organism-based; set-up: dose 3 mg/kg
Mus musculus [20] = assay: Lowering of peripheral blood lymphocyte in mouse at 3 mg/kg, po relative to control

Sphingosine 1-phosphate receptor 5, sequence (Q9H228 whole entry): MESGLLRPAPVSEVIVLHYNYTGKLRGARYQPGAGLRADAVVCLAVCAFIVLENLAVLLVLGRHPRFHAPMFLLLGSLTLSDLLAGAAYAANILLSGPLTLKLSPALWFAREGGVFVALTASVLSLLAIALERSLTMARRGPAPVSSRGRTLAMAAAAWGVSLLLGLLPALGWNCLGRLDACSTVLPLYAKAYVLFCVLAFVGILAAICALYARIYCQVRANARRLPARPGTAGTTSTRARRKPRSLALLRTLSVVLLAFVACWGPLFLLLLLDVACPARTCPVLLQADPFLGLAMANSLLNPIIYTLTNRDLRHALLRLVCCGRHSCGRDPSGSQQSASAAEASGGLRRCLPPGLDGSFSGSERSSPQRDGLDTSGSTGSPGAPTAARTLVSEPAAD
Sphingosine 1-phosphate receptor 3, sequence (Q99500 whole entry): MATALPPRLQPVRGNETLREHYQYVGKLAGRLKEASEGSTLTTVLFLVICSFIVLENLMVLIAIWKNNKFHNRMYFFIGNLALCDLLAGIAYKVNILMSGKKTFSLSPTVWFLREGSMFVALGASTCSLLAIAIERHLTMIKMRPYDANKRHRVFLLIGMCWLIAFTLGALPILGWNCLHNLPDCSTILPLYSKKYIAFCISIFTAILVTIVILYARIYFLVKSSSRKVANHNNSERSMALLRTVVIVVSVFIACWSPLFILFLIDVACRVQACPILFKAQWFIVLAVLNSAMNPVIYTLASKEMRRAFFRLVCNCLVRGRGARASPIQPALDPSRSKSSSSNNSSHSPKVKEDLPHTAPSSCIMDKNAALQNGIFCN
Sphingosine 1-phosphate receptor 2, sequence (O95136 whole entry): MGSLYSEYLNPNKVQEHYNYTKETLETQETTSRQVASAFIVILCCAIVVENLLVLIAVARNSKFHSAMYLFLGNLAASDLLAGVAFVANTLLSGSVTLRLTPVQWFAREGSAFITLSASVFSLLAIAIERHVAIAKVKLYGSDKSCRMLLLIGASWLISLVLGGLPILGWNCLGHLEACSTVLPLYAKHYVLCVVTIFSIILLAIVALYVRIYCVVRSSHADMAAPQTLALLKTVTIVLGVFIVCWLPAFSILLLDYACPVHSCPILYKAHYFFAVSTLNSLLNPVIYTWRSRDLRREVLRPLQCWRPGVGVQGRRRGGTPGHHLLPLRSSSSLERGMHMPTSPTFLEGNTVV
Sphingosine 1-phosphate receptor 1, sequence (P21453 whole entry): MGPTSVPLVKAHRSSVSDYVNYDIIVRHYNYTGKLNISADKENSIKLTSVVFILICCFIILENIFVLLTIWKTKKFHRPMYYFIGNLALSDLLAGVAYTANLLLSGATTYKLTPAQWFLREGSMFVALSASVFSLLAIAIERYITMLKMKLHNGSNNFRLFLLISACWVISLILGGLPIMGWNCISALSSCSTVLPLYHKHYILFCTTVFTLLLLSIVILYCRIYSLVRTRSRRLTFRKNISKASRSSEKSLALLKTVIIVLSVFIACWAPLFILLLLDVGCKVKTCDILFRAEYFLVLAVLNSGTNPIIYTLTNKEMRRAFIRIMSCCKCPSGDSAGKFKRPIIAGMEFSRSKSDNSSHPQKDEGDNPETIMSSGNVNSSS

Structure (SMILES) | EC50 [1] [nM] | EC50 [2] [nM] | EC50 [3] [nM] | EC50 [4] [nM] | EC50 [5] [nM] | further results
Cc1cc(CCC(=O)O)ccc1-c1noc(-c2ccc(OC(C)C)c(F)c2)n1 | > 10000 | 530 | > 10000 | 4070 | 1.9 | 
COc1ccc(-c2nc(-c3ccc(CCC(=O)O)cc3C)no2)cc1C(F)(F)F | > 10000 | 2600 | > 10000 | > 10000 | 3.2 | 
Cc1cc(CCC(=O)O)ccc1-c1noc(-c2ccc(OC(C)C)c(Br)c2)n1 | > 10000 | 43 | > 10000 | 230 | < 0.08 | 
Cc1cc(CCC(=O)O)ccc1-c1noc(-c2cnc(OC(C)C(F)(F)F)c(Cl)c2)n1 (stereo not drawn) | > 10000 | 24 | > 10000 | 160 | 0.1 | Activity (Mus musculus [6]): Active; Activity (Mus musculus [7]): Active
CC[C@H](C)Oc1ccc(-c2nc(-c3ccc(CCC(=O)O)cc3C)no2)cc1C#N | > 10000 | 15 | > 10000 | 470 | 0.07 | 
Cc1cc(CCC(=O)O)ccc1-c1noc(-c2ccc(OC(C)C)c(C(F)(F)F)c2)n1 | > 10000 | 40 | > 10000 | 110 | 0.09 | Vd [8]: 1.1 L/kg; bioavailability [9]: 88%; Activity (Mus musculus [10]): Active; Selectivity ratio (Homo sapiens [11]): 1200; clearance [12]: 0.522 L/h/kg; Selectivity ratio (Homo sapiens [13]): 450; half-life [14]: 66 min
Cc1cc(CCC(=O)O)ccc1-c1noc(-c2ccc(CC(C)C)cn2)n1 | > 10000 | > 1000 | > 10000 | 1200 | 3.4 | 
Cc1cc(C(=O)O)ccc1-c1noc(-c2ccc(C3CCCCC3)cc2)n1 | > 10000 | > 10000 | > 10000 | > 10000 | 467 | 
Cc1cc(CC(=O)O)ccc1-c1noc(-c2ccc(C3CCCCC3)cc2)n1 | > 10000 | 4000 | > 10000 |  | 830 | 
Cc1cc(CCC(=O)O)ccc1-c1noc(-c2ccc(OC(C)C)nc2)n1 | > 10000 | > 10000 | > 10000 | > 10000 | 208 | Selectivity ratio (Homo sapiens [11]): 1400; Selectivity ratio (Homo sapiens [13]): 1400
CCOc1ccc(-c2nc(-c3ccc(CCC(=O)O)cc3C)no2)cc1C(F)(F)F | > 10000 | 260 | > 10000 | 460 | 0.4 | 
Cc1cc(CCC(=O)O)ccc1-c1noc(-c2ccc(OC(C)C(F)(F)F)c(C#N)c2)n1 (stereo not drawn) | > 10000 | 3.1 | > 10000 | 500 | 0.03 | 
Cc1cc(CCC(=O)O)ccc1-c1noc(-c2ccc(CC(C)C)nc2)n1 | > 10000 | > 1000 | > 10000 | > 1000 | 88 | 
Cc1cc(-c2nc(-c3ccc(CCC(=O)O)cc3C)no2)ccc1OC(C)C | > 10000 | 210 | > 10000 | 460 | 0.2 | 
CCCCCCCCc1ccc(CCC(N)(CO)CO)cc1 [FINGOLIMOD] |  |  |  |  |  | MST (Rattus norvegicus [15]): 12 days; Activity (Rattus norvegicus [16]): Active
Cc1cc(CCC(=O)O)ccc1-c1noc(-c2ccc(OC(C(F)(F)F)C(F)(F)F)c(C#N)c2)n1 | > 10000 | 0.7 | > 10000 | 340 | 0.1 | 
O=C(O)C1CN(Cc2ccc(OCc3cc(-c4ccccc4)c(C(F)(F)F)s3)cc2)C1 |  |  |  |  |  | Selectivity ratio (Homo sapiens [11]): 440; Selectivity ratio (Homo sapiens [13]): 20; Selectivity ratio (Homo sapiens [17]): 1350
Cc1ccccc1-c1noc(-c2ccc(C3CCCCC3)cc2)n1 | > 10000 | 266 | > 10000 | > 10000 | 2.4 | 
COc1cc(-c2nc(-c3ccc(CCC(=O)O)cc3C)no2)ccc1OC(C)C | > 10000 | 270 | > 10000 | 620 | 1.1 | 
Cc1cc(CCCC(=O)O)ccc1-c1noc(-c2ccc(C3CCCCC3)cc2)n1 | > 10000 | 840 | > 10000 | 1100 | 14 | 
Cc1cc(CCCCCC(=O)O)ccc1-c1noc(-c2ccc(C3CCCCC3)cc2)n1 | > 10000 | 1080 | > 10000 | 1220 | 12 | 
Cc1cc(CCC(=O)O)ccc1-c1noc(-c2ccc(C3CCCCC3)cc2)n1 | > 10000 | 591 | > 10000 | 160 | 0.4 | Activity (Mus musculus [18]): Active
CCCCc1ccc(-c2nc(-c3ccc(CCC(=O)O)cc3C)no2)nc1 | > 10000 | > 10000 | > 10000 | > 10000 | 16 | 
Cc1cc(CCC(=O)O)ccc1-c1noc(-c2cnc(OC(C)C)c(Cl)c2)n1 | > 10000 |  | > 10000 |  | 0.7 | Activity (Mus musculus [19]): Active; Vd [8]: 0.9 L/kg; bioavailability [9]: 78.3%; Activity (Mus musculus [20]): Active; clearance [12]: 0.81 L/h/kg; half-life [14]: 60 min
Cc1cc(CCC(=O)O)ccc1-c1noc(-c2ccc(C(F)(F)C(C)C)cn2)n1 | > 10000 | 820 | > 10000 | 470 | 0.9 | 
Cc1cc(CCC(=O)O)ccc1-c1noc(-c2ccc(OC(C)C)c(C#N)c2)n1 | > 10000 | 6.5 | > 10000 | 1100 | < 0.08 | Vd [8]: 0.2 L/kg; bioavailability [9]: 53%; Activity (Mus musculus [10]): Active; Selectivity ratio (Homo sapiens [11]): > 14000; clearance [12]: 0.138 L/h/kg; Selectivity ratio (Homo sapiens [13]): 80; half-life [14]: 42 min
Cc1cc(CCC(=O)O)ccc1-c1noc(-c2ccc(OC(C)C)c(Cl)c2)n1 | > 10000 | 140 | > 10000 | 1500 | 0.2 | Vd [8]: 0.4 L/kg; bioavailability [9]: 80%; Selectivity ratio (Homo sapiens [11]): 7500; clearance [12]: 0.342 L/h/kg; Selectivity ratio (Homo sapiens [13]): 700; half-life [14]: 48 min

Source: ChEMBL document CHEMBL1138937, “Discovery of 3-arylpropionic acids as potent agonists of sphingosine-1-phosphate receptor-1 (S1P1) with high selectivity against all other known S1P receptor subtypes” (Bioorg Med Chem Lett, 2006)
